# Source: publication PMC5218480 (PLoS ONE, 2017)
# System: MV-4-11 cells
# Assay: Gene expression microarray analysis (Affymetrix PrimeView) and GSEA
# Type: cell-based, human
# Set-up: RFU PODN (11730768_x_at) / Fold change /veh PODN (11730768_x_at) / RFU LINC00158 (11744669_a_at) / Fold change /veh LINC00158 (11744669_a_at) / RFU DUSP10 (11751237_a_at) / Fold change /veh DUSP10 (11751237_a_at) / RFU ID3 (11757404_x_at) / Fold change /veh ID3 (11757404_x_at) / RFU PLEKHG5 (11737974_s_at) / Fold change /veh PLEKHG5 (11737974_s_at) / RFU LRRC4B (11730491_at) / Fold change /veh LRRC4B (11730491_at) / RFU GIMAP4 (11747438_a_at) / Fold change /veh GIMAP4 (11747438_a_at) / RFU KRT8 (11758183_x_at) / Fold change /veh KRT8 (11758183_x_at) / RFU CNN1 (11734310_a_at) / Fold change /veh CNN1 (11734310_a_at) / RFU VPS37D (11726825_at) / Fold change /veh VPS37D (11726825_at) / RFU C10orf10 (11716522_x_at) / Fold change /veh C10orf10 (11716522_x_at) / RFU KIR2DL2 /// KIR2DL4 /// KIR2DL5A /// KIR2DL5B /// KIR2DS1 /// KIR2DS2 /// KIR2DS3 /// KIR2DS4 /// KIR3DL3 /// KIR3DL3 /// KIR3DS1 (11738374_at) / Fold change /veh KIR2DL2 /// KIR2DL4 /// KIR2DL5A /// KIR2DL5B /// KIR2DS1 /// KIR2DS2 /// KIR2DS3 /// KIR2DS4 /// KIR3DL3 /// KIR3DL3 /// KIR3DS1 (11738374_at) / RFU C1QL1 (11718748_at) / Fold change /veh C1QL1 (11718748_at) / RFU TMPRSS4 (11747572_a_at) / Fold change /veh TMPRSS4 (11747572_a_at) / RFU HAMP (11756126_x_at) / Fold change /veh HAMP (11756126_x_at) / RFU RNFT2 (11725882_a_at) / Fold change /veh RNFT2 (11725882_a_at) / RFU NR4A2 (11747474_a_at) / Fold change /veh NR4A2 (11747474_a_at) / RFU ABCC12 (11746883_a_at) / Fold change /veh ABCC12 (11746883_a_at) / RFU TMEM136 (11760407_x_at) / Fold change /veh TMEM136 (11760407_x_at) / RFU CLDN22 /// WWC2 (11732394_at) / Fold change /veh CLDN22 /// WWC2 (11732394_at) / RFU HLA-DPB1 (11760878_x_at) / Fold change /veh HLA-DPB1 (11760878_x_at) / RFU SPINT1 (11716480_a_at) / Fold change /veh SPINT1 (11716480_a_at) / RFU GAP43 (11754022_s_at) / Fold change /veh GAP43 (11754022_s_at) / RFU A4GNT (11735810_at) / Fold change /veh A4GNT (11735810_at) / RFU PRB3 (11715151_x_at) / Fold change /veh PRB3 (11715151_x_at) / RFU TUBB4B (11761932_at) / Fold change /veh TUBB4B (11761932_at) / RFU CAPN14 (11732068_a_at) / Fold change /veh CAPN14 (11732068_a_at) / RFU TMCC2 (11721928_a_at) / Fold change /veh TMCC2 (11721928_a_at) / RFU IRGQ (11745062_a_at) / Fold change /veh IRGQ (11745062_a_at) / RFU FAM174B (11720279_a_at) / Fold change /veh FAM174B (11720279_a_at) / RFU TMPRSS4 (11748680_a_at) / Fold change /veh TMPRSS4 (11748680_a_at) / RFU FAM212B (11763350_a_at) / Fold change /veh FAM212B (11763350_a_at) / RFU PLEKHG5 (11743358_a_at) / Fold change /veh PLEKHG5 (11743358_a_at) / RFU ZSCAN30 (11745921_a_at) / Fold change /veh ZSCAN30 (11745921_a_at) / RFU CMKLR1 (11741424_a_at) / Fold change /veh CMKLR1 (11741424_a_at) / RFU LOC101060620 /// MAPK8IP1 (11723275_at) / Fold change /veh LOC101060620 /// MAPK8IP1 (11723275_at) / RFU SPTSSB (11747773_x_at) / Fold change /veh SPTSSB (11747773_x_at) / RFU PRSS12 (11739890_at) / Fold change /veh PRSS12 (11739890_at) / RFU BIN1 (11741810_x_at) / Fold change /veh BIN1 (11741810_x_at) / RFU WNT11 (11732464_a_at) / Fold change /veh WNT11 (11732464_a_at) / RFU C10orf10 (11716521_a_at) / Fold change /veh C10orf10 (11716521_a_at) / RFU C5orf56 (11738089_at) / Fold change /veh C5orf56 (11738089_at) / RFU CYB561 (11721691_x_at) / Fold change /veh CYB561 (11721691_x_at) / RFU ANKRD19P (11752326_a_at) / Fold change /veh ANKRD19P (11752326_a_at) / RFU OR2T12 /// OR2T33 /// OR2T8 (11738714_s_at) / Fold change /veh OR2T12 /// OR2T33 /// OR2T8 (11738714_s_at) / RFU VCAN (11748164_a_at) / Fold change /veh VCAN (11748164_a_at) / RFU JSRP1 (11732532_at) / Fold change /veh JSRP1 (11732532_at) / RFU KRTAP10-11 (11738290_x_at) / Fold change /veh KRTAP10-11 (11738290_x_at) / RFU MYO3A (11730013_a_at) / Fold change /veh MYO3A (11730013_a_at) / RFU EBF3 (11725865_a_at) / Fold change /veh EBF3 (11725865_a_at) / RFU CAMK2N1 (11719241_x_at) / Fold change /veh CAMK2N1 (11719241_x_at) / RFU C5orf56 (11738088_a_at) / Fold change /veh C5orf56 (11738088_a_at) / RFU OLFML3 (11715873_a_at) / Fold change /veh OLFML3 (11715873_a_at) / RFU LOC100653217 /// NTM (11731650_a_at) / Fold change /veh LOC100653217 /// NTM (11731650_a_at) / RFU MAPK11 (11762145_a_at) / Fold change /veh MAPK11 (11762145_a_at) / RFU FIZ1 (11724087_x_at) / Fold change /veh FIZ1 (11724087_x_at) / RFU OASL (11726364_x_at) / Fold change /veh OASL (11726364_x_at) / RFU SOX15 (11748057_x_at) / Fold change /veh SOX15 (11748057_x_at) / RFU CD79A (11719716_a_at) / Fold change /veh CD79A (11719716_a_at) / RFU HIST1H1D (11736915_at) / Fold change /veh HIST1H1D (11736915_at) / RFU CASKIN2 (11723855_a_at) / Fold change /veh CASKIN2 (11723855_a_at) / RFU LOC730098 (11760151_x_at) / Fold change /veh LOC730098 (11760151_x_at) / RFU OR4N2 (11742367_at) / Fold change /veh OR4N2 (11742367_at) / RFU PRRT2 (11749266_a_at) / Fold change /veh PRRT2 (11749266_a_at) / RFU SNX32 (11753110_a_at) / Fold change /veh SNX32 (11753110_a_at) / RFU CDHR5 (11726645_a_at) / Fold change /veh CDHR5 (11726645_a_at) / RFU RCAN1 (11760418_a_at) / Fold change /veh RCAN1 (11760418_a_at) / RFU FAM167A (11723789_a_at) / Fold change /veh FAM167A (11723789_a_at) / RFU FAM26E (11764081_at) / Fold change /veh FAM26E (11764081_at) / RFU ISYNA1 (11749810_s_at) / Fold change /veh ISYNA1 (11749810_s_at) / RFU ACY1 (11761880_at) / Fold change /veh ACY1 (11761880_at) / RFU 11764098_at / Fold change /veh 11764098_at / RFU SAMD14 (11745864_x_at) / Fold change /veh SAMD14 (11745864_x_at) / RFU NPB (11741838_a_at) / Fold change /veh NPB (11741838_a_at) / RFU TMPRSS6 (11731388_a_at) / Fold change /veh TMPRSS6 (11731388_a_at) / RFU KRTAP10-2 (11738614_at) / Fold change /veh KRTAP10-2 (11738614_at) / RFU ARHGAP8 /// PRR5-ARHGAP8 (11727945_x_at) / Fold change /veh ARHGAP8 /// PRR5-ARHGAP8 (11727945_x_at) / RFU KRTAP5-7 /// NADSYN1 (11734609_at) / Fold change /veh KRTAP5-7 /// NADSYN1 (11734609_at) / RFU RASL12 (11751679_a_at) / Fold change /veh RASL12 (11751679_a_at) / RFU CDKN2B (11736163_a_at) / Fold change /veh CDKN2B (11736163_a_at) / RFU PRF1 (11729649_at) / Fold change /veh PRF1 (11729649_at) / RFU, ZNF638 /// ZNF638-IT1 / Fold change vs veh, ZNF638 /// ZNF638-IT1 / RFU, PANK3 / Fold change vs veh, PANK3 / RFU, SH3YL1 / Fold change vs veh, SH3YL1 / RFU, ZEB2 / Fold change vs veh, ZEB2 / RFU, NRIP1 / Fold change vs veh, NRIP1 / RFU, PTTG1IP / Fold change vs veh, PTTG1IP / RFU, CAPN2 / Fold change vs veh, CAPN2 / RFU, MED14 / Fold change vs veh, MED14 / RFU, SNORA58 / Fold change vs veh, SNORA58 / RFU, C1orf63 / Fold change vs veh, C1orf63 / RFU, LRRFIP1 / Fold change vs veh, LRRFIP1 / RFU, NDUFAF7 / Fold change vs veh, NDUFAF7 / RFU, SLC12A2 / Fold change vs veh, SLC12A2 / RFU, IBTK / Fold change vs veh, IBTK / RFU, ESF1 / Fold change vs veh, ESF1 / Fold change vs veh, TMEM50B / RFU, TAOK1 / Fold change vs veh, TAOK1 / RFU, ACBD3 / Fold change vs veh, ACBD3 / RFU, TMA16 / Fold change vs veh, TMA16 / RFU, RWDD3 / Fold change vs veh, RWDD3 / RFU, BCAT1 / Fold change vs veh, BCAT1 / RFU, EDEM3 / Fold change vs veh, EDEM3 / RFU, TMEM33 / Fold change vs veh, TMEM33 / RFU, WDR75 / Fold change vs veh, WDR75 / RFU, AHCTF1 / Fold change vs veh, AHCTF1 / RFU, TFRC / Fold change vs veh, TFRC / RFU, ZDHHC17 / Fold change vs veh, ZDHHC17 / RFU, NOM1 / Fold change vs veh, NOM1 / RFU, ARL8B / Fold change vs veh, ARL8B / RFU, ZBTB11 / Fold change vs veh, ZBTB11 / RFU, TAMM41 / Fold change vs veh, TAMM41 / RFU, KIAA1704 /// LOC100996395 / Fold change vs veh, KIAA1704 /// LOC100996395 / RFU, ING1 / Fold change vs veh, ING1 / RFU, TRMT61B / Fold change vs veh, TRMT61B / RFU, FUBP3 / Fold change vs veh, FUBP3 / RFU, TP53 / Fold change vs veh, TP53 / RFU, TNKS2 / Fold change vs veh, TNKS2 / RFU, ZFP14 / Fold change vs veh, ZFP14 / RFU, ACTR2 / Fold change vs veh, ACTR2 / RFU, PPP3R1 / Fold change vs veh, PPP3R1 / RFU, PIK3R1 / Fold change vs veh, PIK3R1 / RFU, HNRNPA1 / Fold change vs veh, HNRNPA1 / RFU, RNF170 / Fold change vs veh, RNF170 / RFU, ZNF28 / Fold change vs veh, ZNF28 / RFU, RNGTT / Fold change vs veh, RNGTT / RFU, OGT / Fold change vs veh, OGT / RFU, BRD1 / Fold change vs veh, BRD1 / RFU, MARS / Fold change vs veh, MARS / RFU, ZNF655 / Fold change vs veh, ZNF655 / RFU, FAHD1 / Fold change vs veh, FAHD1 / RFU, BDP1 / Fold change vs veh, BDP1 / RFU, LRRCC1 / Fold change vs veh, LRRCC1 / RFU, ARID1A / Fold change vs veh, ARID1A / RFU, ZNF146 / Fold change vs veh, ZNF146 / RFU, ZNF330 / Fold change vs veh, ZNF330 / RFU, GPN3 / Fold change vs veh, GPN3 / RFU, C9orf123 / Fold change vs veh, C9orf123 / RFU, N4BP2L2 / Fold change vs veh, N4BP2L2 / RFU, ARFIP1 / Fold change vs veh, ARFIP1 / RFU, FAM179B / Fold change vs veh, FAM179B / RFU, BCL10 / Fold change vs veh, BCL10 / RFU, UHRF1BP1L / Fold change vs veh, UHRF1BP1L / RFU, BET1 / Fold change vs veh, BET1 / RFU, CNOT2 / Fold change vs veh, CNOT2 / RFU, ZNF268 / Fold change vs veh, ZNF268 / Fold change vs veh, ZNF507 / RFU, DGCR2 / Fold change vs veh, DGCR2 / RFU, WDSUB1 / Fold change vs veh, WDSUB1 / Fold change vs veh, HSP90B1 /// MIR3652 / RFU, ADSS / Fold change vs veh, ADSS / RFU, GK / Fold change vs veh, GK / RFU, ZNF148 / Fold change vs veh, ZNF148 / RFU, TAF9 / Fold change vs veh, TAF9 / RFU, SLC1A5 / Fold change vs veh, SLC1A5 / RFU, SLMO2 / Fold change vs veh, SLMO2 / RFU, ABCC4 / Fold change vs veh, ABCC4 / RFU, LOC101060439 /// RAP1B / Fold change vs veh, LOC101060439 /// RAP1B / RFU, RFX7 / Fold change vs veh, RFX7 / RFU, GTPBP10 / Fold change vs veh, GTPBP10 / RFU, CNEP1R1 / Fold change vs veh, CNEP1R1 / RFU, BIVM-ERCC5 /// ERCC5 / Fold change vs veh, BIVM-ERCC5 /// ERCC5 / RFU, ILF3 / Fold change vs veh, ILF3 / RFU 11762660_at / Fold change /veh 11762660_at / RFU VCAN (11757783_s_at) / Fold change /veh VCAN (11757783_s_at) / RFU DDX43 (11728927_at) / Fold change /veh DDX43 (11728927_at) / RFU KRT8 (11758188_x_at) / Fold change /veh KRT8 (11758188_x_at) / RFU NKD1 (11759106_at) / Fold change /veh NKD1 (11759106_at) / RFU SRD5A1 (11742802_a_at) / Fold change /veh SRD5A1 (11742802_a_at) / RFU TPSAB1 /// TPSB2 (11721975_s_at) / Fold change /veh TPSAB1 /// TPSB2 (11721975_s_at) / RFU GSTM3 (11746129_a_at) / Fold change /veh GSTM3 (11746129_a_at) / RFU IL23R (11737362_x_at) / Fold change /veh IL23R (11737362_x_at) / RFU TMEM51 (11727254_a_at) / Fold change /veh TMEM51 (11727254_a_at) / RFU PIWIL2 (11732686_x_at) / Fold change /veh PIWIL2 (11732686_x_at) / RFU ORM1 (11744905_x_at) / Fold change /veh ORM1 (11744905_x_at) / RFU CCDC152 (11743942_at) / Fold change /veh CCDC152 (11743942_at) / RFU ECM1 (11717891_a_at) / Fold change /veh ECM1 (11717891_a_at) / RFU IL23R (11748794_a_at) / Fold change /veh IL23R (11748794_a_at) / RFU TNFAIP8L3 (11732012_x_at) / Fold change /veh TNFAIP8L3 (11732012_x_at) / RFU MBOAT4 (11741988_at) / Fold change /veh MBOAT4 (11741988_at) / RFU 11764193_at / Fold change /veh 11764193_at / RFU TMEM53 (11763286_at) / Fold change /veh TMEM53 (11763286_at) / RFU MAGEB2 (11727129_at) / Fold change /veh MAGEB2 (11727129_at) / RFU TMEM200A (11744735_a_at) / Fold change /veh TMEM200A (11744735_a_at) / RFU CCDC152 (11751479_a_at) / Fold change /veh CCDC152 (11751479_a_at) / RFU FAM211A (11726209_a_at) / Fold change /veh FAM211A (11726209_a_at) / RFU RGS16 (11746705_a_at) / Fold change /veh RGS16 (11746705_a_at) / RFU VCAN (11755009_s_at) / Fold change /veh VCAN (11755009_s_at) / RFU RHOB (11743442_s_at) / Fold change /veh RHOB (11743442_s_at) / RFU RGS16 (11720943_a_at) / Fold change /veh RGS16 (11720943_a_at) / RFU RGS16 (11720944_at) / Fold change /veh RGS16 (11720944_at) / RFU, VPS4B / Fold change vs veh, VPS4B / RFU, CREB1 / Fold change vs veh, CREB1 / RFU, DNAJC13 / Fold change vs veh, DNAJC13 / RFU, GNAQ / Fold change vs veh, GNAQ / RFU, CDK5R1 / Fold change vs veh, CDK5R1 / RFU, ZRANB3 / Fold change vs veh, ZRANB3 / RFU, CUL4A / Fold change vs veh, CUL4A / RFU, CCNY / Fold change vs veh, CCNY / RFU, UFL1 / Fold change vs veh, UFL1 / RFU, COG3 / Fold change vs veh, COG3 / RFU, DIAPH2 / Fold change vs veh, DIAPH2 / RFU, SKA2 / Fold change vs veh, SKA2 / RFU, AFF3 / Fold change vs veh, AFF3 / RFU, LMF1 / Fold change vs veh, LMF1 / RFU, IPO11 / Fold change vs veh, IPO11 / RFU, DFFB / Fold change vs veh, DFFB / RFU, FOXP1 / Fold change vs veh, FOXP1 / RFU, CARD8 / Fold change vs veh, CARD8 / RFU, STRN3 / Fold change vs veh, STRN3 / RFU, ADK / Fold change vs veh, ADK / RFU, RASSF2 / Fold change vs veh, RASSF2 / RFU, WIPF1 / Fold change vs veh, WIPF1 / RFU, LARP1B / Fold change vs veh, LARP1B / RFU, RASA1 / Fold change vs veh, RASA1 / RFU, RB1 / Fold change vs veh, RB1 / RFU, PPFIA1 / Fold change vs veh, PPFIA1 / RFU, MAT2A / Fold change vs veh, MAT2A / RFU, CCT5 / Fold change vs veh, CCT5 / RFU, WDR92 / Fold change vs veh, WDR92 / RFU, CUX1 / Fold change vs veh, CUX1 / RFU, TTC7A / Fold change vs veh, TTC7A / RFU, TMEM135 / Fold change vs veh, TMEM135 / RFU, DEPTOR / Fold change vs veh, DEPTOR / RFU, CPM / Fold change vs veh, CPM / RFU, DNAJB6 / Fold change vs veh, DNAJB6 / RFU, CACNA2D3 / Fold change vs veh, CACNA2D3 / RFU, DTX4 / Fold change vs veh, DTX4 / RFU, TFCP2 / Fold change vs veh, TFCP2 / RFU, GMCL1 /// GMCL1P1 / Fold change vs veh, GMCL1 /// GMCL1P1 / RFU, AEBP2 / Fold change vs veh, AEBP2 / RFU, SNHG1 /// SNORD22 /// SNORD25 /// SNORD26 /// SNORD27 /// SNORD28 /// SNORD29 /// SNORD31 / Fold change vs veh, SNHG1 /// SNORD22 /// SNORD25 /// SNORD26 /// SNORD27 /// SNORD28 /// SNORD29 /// SNORD31 / Fold change (Aza/veh), C12orf56 (ProbeSet 11735607_a_at) / Fold change (ACY-1035/veh), C12orf56 (ProbeSet 11735607_a_at) / Fold change (Aza/veh), FGFR1OP (ProbeSet 11751329_s_at) / Fold change (ACY-1035/veh), FGFR1OP (ProbeSet 11751329_s_at) / Fold change (Aza/veh), VPS36 (ProbeSet 11739960_a_at) / Fold change (ACY-1035/veh), VPS36 (ProbeSet 11739960_a_at) / RFU SYPL1 (11715823_x_at) / Fold change /veh SYPL1 (11715823_x_at) / RFU IGFBP7 (11715501_s_at) / Fold change /veh IGFBP7 (11715501_s_at) / RFU REEP3 (11722064_at) / Fold change /veh REEP3 (11722064_at) / RFU IGLL1 (11728026_x_at) / Fold change /veh IGLL1 (11728026_x_at): dose or concentration left out as unconfirmed
# Settings: MV-4-11 cells, 48 hours
structure (smiles),measurement,value
Nc1ncn([C@@H]2O[C@H](CO)[C@@H](O)[C@H]2O)c(=O)n1 [azacitidine],RFU HAMP (11756126_x_at),317.78 RFU
